Source: ChEMBL document CHEMBL3745644, “The synthesis and BK channel-opening activity of N-acylaminoalkyloxime derivatives of dehydroabietic acid” (Bioorg Med Chem Lett, 2016)

Molecular target: Calcium-activated potassium channel subunit alpha-1 (Homo sapiens) (UniProt Q12791)
Experiment: Induction of step pulse-induced human BKalpha channel opening activity expressed in CHO-K1 cells at 30 uM by population patch clamp method relative to control
Type: cell-based

Sequence of Calcium-activated potassium channel subunit alpha-1 (Homo sapiens) (Q12791 whole entry): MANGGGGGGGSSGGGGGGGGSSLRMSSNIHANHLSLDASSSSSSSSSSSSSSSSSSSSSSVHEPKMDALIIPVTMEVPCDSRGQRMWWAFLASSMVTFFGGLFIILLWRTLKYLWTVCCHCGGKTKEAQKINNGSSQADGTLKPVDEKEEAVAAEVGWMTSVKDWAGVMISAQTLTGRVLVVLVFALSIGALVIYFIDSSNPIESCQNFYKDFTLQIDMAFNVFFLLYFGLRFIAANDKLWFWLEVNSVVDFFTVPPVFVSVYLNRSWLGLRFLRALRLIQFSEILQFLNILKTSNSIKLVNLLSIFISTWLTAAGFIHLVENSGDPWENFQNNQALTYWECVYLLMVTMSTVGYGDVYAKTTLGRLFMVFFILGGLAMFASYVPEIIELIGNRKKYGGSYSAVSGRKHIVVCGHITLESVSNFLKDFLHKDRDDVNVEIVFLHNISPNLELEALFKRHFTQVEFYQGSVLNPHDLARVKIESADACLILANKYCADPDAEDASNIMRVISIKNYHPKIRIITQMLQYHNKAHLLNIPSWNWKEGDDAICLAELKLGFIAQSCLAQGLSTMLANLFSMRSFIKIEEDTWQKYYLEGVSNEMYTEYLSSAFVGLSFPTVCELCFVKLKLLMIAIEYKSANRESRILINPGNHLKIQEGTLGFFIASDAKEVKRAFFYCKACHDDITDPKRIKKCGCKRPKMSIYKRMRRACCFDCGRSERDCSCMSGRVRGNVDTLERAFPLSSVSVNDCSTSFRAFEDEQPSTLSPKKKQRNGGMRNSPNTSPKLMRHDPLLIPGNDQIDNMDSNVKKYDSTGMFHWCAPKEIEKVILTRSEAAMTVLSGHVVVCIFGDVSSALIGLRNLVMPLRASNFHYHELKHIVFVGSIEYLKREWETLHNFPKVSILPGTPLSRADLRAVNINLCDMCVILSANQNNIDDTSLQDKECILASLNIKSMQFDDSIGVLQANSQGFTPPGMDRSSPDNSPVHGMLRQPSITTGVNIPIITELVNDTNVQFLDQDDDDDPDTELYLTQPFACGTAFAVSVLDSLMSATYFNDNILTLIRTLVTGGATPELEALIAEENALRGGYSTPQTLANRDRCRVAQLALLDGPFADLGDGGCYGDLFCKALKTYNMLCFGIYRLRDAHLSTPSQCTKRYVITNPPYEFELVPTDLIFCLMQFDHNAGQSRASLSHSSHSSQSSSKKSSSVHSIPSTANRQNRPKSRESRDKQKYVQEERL

Activity	SMILES
104%	CC(C)c1cc2c(cc1Br)[C@@]1(C)CCC[C@@](C)(C(=O)O)[C@@H]1C/C2=N\OCCCCCNC(=O)c1cccs1
97.2%	CC(C)c1cc2c(cc1Br)[C@@]1(C)CCC[C@@](C)(C(=O)O)[C@@H]1C/C2=N\OCCCCCCNC(=O)c1cccs1
151%	CC(C)c1cc2c(cc1Br)[C@@]1(C)CCC[C@@](C)(C(=O)O)[C@@H]1C/C2=N\OCCNC(=O)c1ccco1
140%	CC(=O)NCCO/N=C1\C[C@H]2[C@](C)(C(=O)O)CCC[C@]2(C)c2cc(Br)c(C(C)C)cc21
128%	CC(C)c1cc2c(cc1Br)[C@@]1(C)CCC[C@@](C)(C(=O)O)[C@@H]1C/C2=N\OCCNC(=O)c1ccsc1
267%	CC(C)c1cc2c(cc1Br)[C@@]1(C)CCC[C@@](C)(C(=O)O)[C@@H]1C/C2=N\OCCNC(=O)c1cccs1
204%	CC(C)c1cc2c(cc1Br)[C@@]1(C)CCC[C@@](C)(C(=O)O)[C@@H]1C/C2=N\OCCNC(=O)c1nccs1
106%	CC(C)c1ccc2c(c1)/C(=N/OCCNC(=O)c1cccs1)C[C@H]1[C@](C)(C(=O)O)CCC[C@]21C
124%	CC(C)c1cc2c(cc1Br)[C@@]1(C)CCC[C@@](C)(C(=O)O)[C@@H]1C/C2=N\OCCNC(=O)c1ccc[nH]1
108%	CC(C)c1cc2c(cc1Br)[C@@]1(C)CCC[C@@](C)(C(=O)O)[C@@H]1C/C2=N\OCCNC(=O)c1ccccn1
123%	CC(C)c1cc2c(cc1Br)[C@@]1(C)CCC[C@@](C)(C(=O)O)[C@@H]1C/C2=N\OCCNC(=O)c1ccccc1C(F)(F)F
101%	Cc1ccc(C(=O)NCCO/N=C2\C[C@H]3[C@](C)(C(=O)O)CCC[C@]3(C)c3cc(Br)c(C(C)C)cc32)s1
90.4%	COc1cccc(C(=O)NCCO/N=C2\C[C@H]3[C@](C)(C(=O)O)CCC[C@]3(C)c3cc(Br)c(C(C)C)cc32)c1
121%	CC(C)c1cc2c(cc1Br)[C@@]1(C)CCC[C@@](C)(C(=O)O)[C@@H]1C/C2=N\OCCNC(=O)c1ccccc1
106%	CC(C)c1cc2c(cc1Br)[C@@]1(C)CCC[C@@](C)(C(=O)O)[C@@H]1C/C2=N\OCCNC(=O)c1cc(Br)cs1
118%	CC(C)c1cc2c(cc1Br)[C@@]1(C)CCC[C@@](C)(C(=O)O)[C@@H]1C/C2=N\OCCNC(=O)c1ccccc1F
136%	CC(C)c1cc2c(cc1Br)[C@@]1(C)CCC[C@@](C)(C(=O)O)[C@@H]1C/C2=N\OCCCNC(=O)c1cccs1

Further lines, the compound ahead of its results:

SMILES	Activity
CC(C)c1cc2c(cc1Br)[C@@]1(C)CCC[C@@](C)(C(=O)O)[C@@H]1C/C2=N\OCCNC(=O)c1cc2ccccc2[nH]1	89%
O=c1[nH]c2cc(C(F)(F)F)ccc2n1-c1cc(C(F)(F)F)ccc1O	268%
COc1ccc(C(=O)NCCO/N=C2\C[C@H]3[C@](C)(C(=O)O)CCC[C@]3(C)c3cc(Br)c(C(C)C)cc32)cc1	102%
CC(C)c1cc2c(cc1Br)[C@@]1(C)CCC[C@@](C)(C(=O)O)[C@@H]1C/C2=N\OCCNC(=O)c1ccc(C(F)(F)F)cc1	107%
CC(C)c1cc2c(cc1Br)[C@@]1(C)CCC[C@@](C)(C(=O)O)[C@@H]1C/C2=N\OCCNC(=O)c1cccc(C(F)(F)F)c1	113%
CC(C)c1cc2c(cc1Br)[C@@]1(C)CCC[C@@](C)(C(=O)O)[C@@H]1C/C2=N\OCCNC(=O)c1ccc(Br)s1	107%
CC(C)c1cc2c(cc1Br)[C@@]1(C)CCC[C@@](C)(C(=O)O)[C@@H]1C/C2=N\OCCNC(=O)c1c(F)c(F)c(F)c(F)c1F	136%
CC(C)c1cc2c(cc1Br)[C@@]1(C)CCC[C@@](C)(C(=O)O)[C@@H]1C/C2=N\OCCN	98.6%
COc1ccccc1C(=O)NCCO/N=C1\C[C@H]2[C@](C)(C(=O)O)CCC[C@]2(C)c2cc(Br)c(C(C)C)cc21	101%
CCc1ccc(C(=O)NCCO/N=C2\C[C@H]3[C@](C)(C(=O)O)CCC[C@]3(C)c3cc(Br)c(C(C)C)cc32)cc1	68%
CC(C)c1cc2c(cc1Br)[C@@]1(C)CCC[C@@](C)(C(=O)O)[C@@H]1C/C2=N\OCCNC(=O)c1cc2ccccc2s1	85.7%
CCCCCC(=O)NCCO/N=C1\C[C@H]2[C@](C)(C(=O)O)CCC[C@]2(C)c2cc(Br)c(C(C)C)cc21	146%
CC(C)C(=O)NCCO/N=C1\C[C@H]2[C@](C)(C(=O)O)CCC[C@]2(C)c2cc(Br)c(C(C)C)cc21	142%
CC(C)c1cc2c(cc1Br)[C@@]1(C)CCC[C@@](C)(C(=O)O)[C@@H]1C/C2=N\OCCNC(=O)c1ccc(Cl)s1	103%
CC(C)c1cc2c(cc1Br)[C@@]1(C)CCC[C@@](C)(C(=O)O)[C@@H]1C/C2=N\OCCNC(=O)C1CC1	149%
